As usually defined, the Kd is the equilibrium constant for the complex coming apart. By IC50 is commonly meant the point on the concentration scale where inhibition reaches its midpoint.

The target of assay [1] is T1, SMARCA2 (Homo sapiens, UniProt P51531). Description: SMARCA2 BromoScan bromodomain binding assay (phage-displayed bromodomain, qPCR readout). More on the design: made in house; host or cells: E. coli host derived from the BL21 strain (T7 phage lysate). The conditions noted are these: read-out: BromoScan Panel - SMARCA2: External Kd. On the procedure:
Bromodomain assays. T7 phage strains displaying bromodomains were grown in parallel in 24-well blocks in an E. coli host derived from the BL21 strain. E. coli were grown to log-phase and infected with T7 phage from a frozen stock (multiplicity of infection=0.4) and incubated with shaking at 32° C. until lysis (90-150 minutes). The lysates were centrifuged (5,000×g) and filtered (0.2 μm) to remove cell debris. Streptavidin-coated magnetic beads were treated with biotinylated small molecule or acetylated peptide ligands for 30 minutes at room temperature to generate affinity resins for bromodomain assays. […] Test compounds were prepared as 1000λ stocks in 100% DMSO. Kds were determined using an 11-point 3-fold compound dilution series with one DMSO control point. […] The compounds were then diluted directly into the assays such that the final concentration of DMSO was 0.09%. All reactions performed in polypropylene 384-well plates. Each was a final volume of 0.02 ml. […] The bromodomain concentration in the eluates was measured by qPCR. Compound Handling: An 11-point 3-fold serial dilution of each test compound was prepared in 100% DMSO at 1000× final test concentration. […] The compounds were then diluted directly into the assays such that the final concentration of DMSO was 0.09%. […] Binding constants (Kds) were calculated with a standard dose-response curve using the Hill equation. Curves were fitted using a non-linear least square fit with the Levenberg-Marquardt algorithm.
Target sequence in this assay (P51531 1378-1506 limits assumed): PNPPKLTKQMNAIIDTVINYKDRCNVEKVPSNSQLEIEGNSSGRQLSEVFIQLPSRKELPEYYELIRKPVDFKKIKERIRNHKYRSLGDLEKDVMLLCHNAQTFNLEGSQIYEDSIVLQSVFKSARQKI

For assay [2], the target named is T1, SMARCA2. Briefly: SMARCA2 HTRF assay (His-tagged SMARCA2-17, anti-6His Tb cryptate). The conditions noted are these: read-out: SMARCA2 binding Human HTRF: Average IC50. On the procedure:
Sample handling: Prepared 1× Epigenetics Buffer according to manufacturer's instructions. Prepared 32 nM SMARCA2-17 (4X) with Epigenetics Buffer; Prepared 4× Tb working solution: dilute Mab Anti 6His Tb cryptate Gold in PPI-Terbium Detection buffer to 0.21 ng/l (100× dilution from stock). Prepared SMARCA2-mAb-Tb working solution by mixing equal volume of 32 nM SMARCA2 with Tb working solution. Started a half-hour timer. In a 96-well plate, prepared serial dilution of compound DMSO solutions. Placed 24 μl/well of Epigenetics Buffer to a second 96-well plate. Transferred 1 μl of the 100× compound DMSO solution to the second 96-well plate to make 4× compound working solution. Prepared 80 nM SMA-611-001H/SMA-788-001H (4×) with Epigenetics Buffer. Added 5 μl/well of SMA-611-001H into the 384-well plate. Added 5 μl/well of SMA-788-001H into the 384-well plate. Added 5 μl/well of 4× compound working solution into the 384-well plate, mix well. Added 10 µl/well of SMARCA2-mAb-Tb working solution into 384-well plate. Incubated the above mixtures at room temperature for 30 min. Data collected, processed and on EnVision. Calculated 520 nm/495 nm readouts ratio from raw data.
Target sequence in this assay (P51531 whole entry): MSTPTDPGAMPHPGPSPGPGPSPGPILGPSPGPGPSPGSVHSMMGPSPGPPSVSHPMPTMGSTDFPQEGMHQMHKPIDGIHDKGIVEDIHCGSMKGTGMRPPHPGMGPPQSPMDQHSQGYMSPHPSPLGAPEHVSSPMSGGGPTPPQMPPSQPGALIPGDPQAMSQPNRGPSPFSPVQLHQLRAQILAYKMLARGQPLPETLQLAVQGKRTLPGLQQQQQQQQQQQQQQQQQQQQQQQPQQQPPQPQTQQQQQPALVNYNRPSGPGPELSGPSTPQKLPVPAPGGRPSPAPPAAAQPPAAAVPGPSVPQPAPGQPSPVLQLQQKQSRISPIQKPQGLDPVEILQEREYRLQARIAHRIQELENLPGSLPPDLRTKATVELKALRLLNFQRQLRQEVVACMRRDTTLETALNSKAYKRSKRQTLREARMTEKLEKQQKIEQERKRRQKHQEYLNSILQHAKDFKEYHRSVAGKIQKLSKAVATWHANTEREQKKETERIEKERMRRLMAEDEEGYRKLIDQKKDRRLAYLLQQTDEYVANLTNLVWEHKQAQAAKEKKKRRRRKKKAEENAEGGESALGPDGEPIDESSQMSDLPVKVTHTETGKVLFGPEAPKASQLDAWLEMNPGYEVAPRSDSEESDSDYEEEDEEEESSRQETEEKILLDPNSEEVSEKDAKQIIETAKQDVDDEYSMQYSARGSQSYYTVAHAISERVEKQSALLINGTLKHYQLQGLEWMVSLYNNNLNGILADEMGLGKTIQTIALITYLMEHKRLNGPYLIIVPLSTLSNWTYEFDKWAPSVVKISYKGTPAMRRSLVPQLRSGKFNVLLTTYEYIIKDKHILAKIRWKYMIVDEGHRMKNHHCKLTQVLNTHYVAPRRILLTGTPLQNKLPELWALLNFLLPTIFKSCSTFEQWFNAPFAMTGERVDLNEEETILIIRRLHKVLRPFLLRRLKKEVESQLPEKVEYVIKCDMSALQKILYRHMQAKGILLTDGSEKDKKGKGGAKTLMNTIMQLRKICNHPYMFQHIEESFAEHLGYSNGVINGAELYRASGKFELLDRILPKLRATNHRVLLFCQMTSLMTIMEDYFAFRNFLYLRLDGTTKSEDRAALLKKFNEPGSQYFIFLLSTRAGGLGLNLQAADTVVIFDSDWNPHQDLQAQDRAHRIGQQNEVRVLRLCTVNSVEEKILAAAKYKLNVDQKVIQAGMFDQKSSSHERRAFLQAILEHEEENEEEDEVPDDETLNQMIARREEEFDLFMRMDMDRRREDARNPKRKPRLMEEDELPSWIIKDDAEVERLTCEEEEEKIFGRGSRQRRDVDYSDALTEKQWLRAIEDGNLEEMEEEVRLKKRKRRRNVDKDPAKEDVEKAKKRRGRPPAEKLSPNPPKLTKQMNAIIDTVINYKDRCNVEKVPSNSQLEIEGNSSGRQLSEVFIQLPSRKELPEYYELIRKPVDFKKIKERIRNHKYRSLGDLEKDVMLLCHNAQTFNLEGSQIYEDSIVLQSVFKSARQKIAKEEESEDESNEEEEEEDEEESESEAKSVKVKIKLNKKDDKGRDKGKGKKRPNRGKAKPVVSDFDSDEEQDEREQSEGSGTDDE
(In general: TR-FRET usually uses a lanthanide donor and a delayed reading to cut background.)

Consider `CC(c1ccccc1)n1cc(-c2cc(-c3cccn(C)c3=O)cnc2N)cn1` (centres unmarked) [I-1, 6′-Amino-1-methyl-5′-(1-(1-phenylethyl)-1H-pyrazol-4-yl)-[3,3′-bipyridin]-2(1H)-one], for which the Kd at SMARCA2 [1] was greater than 1 µM.
For the compound `Cn1cccc(-c2cnc(N)c(-c3cn[nH]c3)c2)c1=O` [I-2, 3-[6-Amino-5-(1H-pyrazol-4-yl)-3-pyridyl]-1-methyl-pyridin-2-one], the Kd at SMARCA2 [1] was greater than 1 µM.
Same read-out and setting: next, `O=c1c2c(O)cccc2ccn1Cc1cnn(Cc2ccccc2)c1` [I-3, 2-((1-benzyl-1H-pyrazol-4-yl)methyl)-8-hydroxyisoquinolin-1(2H)-one]: greater than 1 µM; `O=c1c2c(O)cccc2ccn1Cc1cn[nH]c1` [I-4, 2-((1H-pyrazol-4-yl)methyl)-8-hydroxyisoquinolin-1(2H)-one]: greater than 1 µM.
On to `O=c1c2c(O)cccc2ccn1CC1CCN(c2ccccn2)C1` (centres unmarked) [I-5, 8-hydroxy-2-((1-(pyridin-2-yl)pyrrolidin-3-yl)methyl)isoquinolin-1(2H)-one], for which the Kd at SMARCA2 [1] was greater than 1 µM.
Same read-out and setting: with `CC(C)(C)OC(=O)N1CCCC1Cn1ccc2cccc(O)c2c1=O` (centres unmarked) [I-6, Tert-butyl-2-((8-hydroxy-1-oxoisoquinolin-2(1H)-yl)methyl)pyrrolidine-1-carboxylate] the figure was greater than 1 µM; with `O=c1c2c(O)cccc2ccn1CC1CCCN1` (centres unmarked) [I-7, 8-hydroxy-2-(pyrrolidin-2-ylmethyl)isoquinolin-1(2H)-one], greater than 1 µM.
Same read-out and setting: with `CC(C)(C)OC(=O)N1CCC(Cn2ccc3cccc(O)c3c2=O)C1` (centres unmarked) [I-9, Tert-butyl 3-((8-hydroxy-1-oxoisoquinolin-2(1H)-yl)methyl)pyrrolidine-1-carboxylate] the figure was greater than 1 µM.
As for `O=c1c2c(O)cccc2ccn1CC1CCNC1` (centres unmarked) [I-10, 8-hydroxy-2-(pyrrolidin-3-ylmethyl)isoquinolin-1(2H)-one], the Kd on SMARCA2 [1] was greater than 1 µM.
On the same count and under the same terms, with `O=c1ncn(-c2ccccc2)c2cccc(Cl)c12` [I-11, 5-Chloro-1-phenylquinazolin-4(1H)-one] the figure was greater than 1 µM; with `Nc1ncc(-c2ncccn2)cc1C1CCNCC1` [I-13], greater than 1 µM.
Consider `Nc1ncc(-c2ncccn2)cc1N1CCNCC1` [I-14, 3-(piperazin-1-yl)-5-(pyrimidin-2-yl)pyridin-2-amine], for which the Kd on SMARCA2 [1] was greater than 1 µM.
Turning to `Nc1ncc(-c2cccc(Cl)c2)cc1N1CCNCC1` [I-15, 5-(3-chlorophenyl)-3-(piperazin-1-yl)pyridin-2-amine], the Kd at SMARCA2 [1] is greater than 1 µM.
For `O=C(NCC1CCN(c2ccccn2)CC1)c1ccccc1O` [I-16, 2-Hydroxy-N-((1-(pyridin-2-yl)piperidin-4-yl)methyl)benzamide], the Kd at SMARCA2 [1] is greater than 1 µM.
As to `Nc1nnc(-c2cnccc2O)cc1N1CCNCC1` [I-17, 3-(6-Amino-5-(piperazin-1-yl)pyridazin-3-yl)pyridin-4-ol], the Kd on SMARCA2 [1] is greater than 1 µM.
On the same count and under the same terms, with `CCCCOc1ccc(N2CCN(c3cc(-c4ccccc4O)nnc3N)CC2)cc1` [I-18, 2-(6-Amino-5-(4-(4-butoxyphenyl)piperazin-1-yl)pyridazin-3-yl)phenol] the figure was greater than 1 µM.
As to `Oc1ccccc1-c1cc2cc[nH]c2nn1` [I-19, 2-(7H-Pyrrolo[2,3-c]pyridazin-3-yl)phenol], on SMARCA2 [2], the IC50 lay in the range of 1 to 100 µM. The equilibrium dissociation constant (Kd) at SMARCA2 [1] is less than 0.1 µM.
`Oc1ccccc1-c1cc2c(C3CCNCC3)c[nH]c2nn1` [I-20, 2-(5-(Piperidin-4-yl)-7H-pyrrolo[2,3-c]pyridazin-3-yl)phenol]: at SMARCA2 [1], the Kd was less than 0.1 µM.
For the compound `O=C(Nc1ccc2cn[nH]c2c1)c1ccccc1O` [I-21, 2-Hydroxy-N-(1H-indazol-6-yl)benzamide], at SMARCA2 [1], the Kd is greater than 1 µM.
As to `O=C(Nc1cc(C2CCNCC2)cc2[nH]ncc12)c1ccccc1O` [I-22, 2-Hydroxy-N-(6-(piperidin-4-yl)-1H-indazol-4-yl)benzamide], the Kd at SMARCA2 [1] is greater than 1 µM.
Turning to `O=C(Nc1ccc2c(C3CCNCC3)n[nH]c2c1)c1ccccc1O` [I-23, 2-Hydroxy-N-[3-(4-piperidyl)-1H-indazol-6-yl]benzamide], the Kd at SMARCA2 [1] is greater than 1 µM.
`c1ccc2c(c1)nnc1[nH]c(C3CCNCC3)cc12` [I-24, 2-(4-Piperidyl)-3H-pyrrolo [2,3-c]cinnoline]: the Kd on SMARCA2 [1] is 0.501 to 1 µM.
Turning to `Nc1ncc2ccccc2c1C#CC1CCNCC1` [I-25, 4-(Piperidin-4-ylethynyl)isoquinolin-3-amine], the IC50 at SMARCA2 [2] is 101 to 500 µM.
`Nc1ncc2c(Cl)cccc2c1C#CC1CCNCC1` [I-27, 8-Chloro-4-(piperidin-4-ylethynyl)isoquinolin-3-amine]: on SMARCA2 [1], the Kd was greater than 1 µM.
With `Oc1ccccc1-c1cc(-c2ccc(CN3CCNCC3)cc2)[nH]n1` [I-28, 2-[5-[4-(piperazin-1-ylmethyl)phenyl]-1H-pyrazol-3-yl]phenol], the Kd on SMARCA2 [1] was greater than 1 µM.
Take `Oc1ccccc1-c1n[nH]c2ccccc12` [I-29, 2-(1H-indazol-3-yl)phenol]: the Kd on SMARCA2 [1] is greater than 1 µM.
With `Oc1ccccc1-c1n[nH]c2ccncc12` [I-30, 2-(1H-Pyrazolo[4,3-c]pyridin-3-yl)phenol], the Kd on SMARCA2 [1] was greater than 1 µM.
For `Nc1nnc(-c2ccc(Cl)cc2O)cc1N1CCNCC1` [I-31, 2-(6-Amino-5-piperazin-1-yl-pyridazin-3-yl)-5-chloro-phenol], the Kd on SMARCA2 [1] is greater than 1 µM.
As to `Nc1nnc(-c2cccc(Cl)c2O)cc1N1CCNCC1` [I-32, 2-(6-Amino-5-(piperazin-1-yl)pyridazin-3-yl)-6-chlorophenol], on SMARCA2 [1], the Kd was less than 0.1 µM.
With `Nc1nnc(-c2cc(Cl)ccc2O)cc1N1CCNCC1` [I-33, 2-(6-Amino-5-piperazin-1-yl-pyridazin-3-yl)-4-chloro-phenol], the Kd at SMARCA2 [1] lay within 0.1 to 0.5 µM.
`Cc1ccc(O)c(-c2cc(N3CCNCC3)c(N)nn2)c1` [I-34, 2-(6-Amino-5-piperazin-1-yl-pyridazin-3-yl)-4-methyl-phenol]: at SMARCA2 [1], the Kd was greater than 1 µM.
As for `Nc1nnc(-c2ccn[nH]2)cc1C1CCNCC1` [I-35, 4-(4-Piperidyl)-6-(1H-pyrazol-5-yl)pyridazin-3-amine], the Kd on SMARCA2 [1] was greater than 1 µM.
Regarding `COC(=O)C1=CC(=O)N2CCCN=C2S1` [I-37], the Kd on SMARCA2 [1] is greater than 1 µM.
`COc1ccc(C(NC(=O)c2cc(-c3ccccc3O)n[nH]2)C2CC2)cc1` (centres unmarked) [I-38]: the Kd on SMARCA2 [1] was greater than 1 µM.

For the origin of these results see patent US20220324880A1, “SMARCA INHIBITORS AND USES THEREOF” (Kymara Therapeutics, Inc., priority 2019, published 2022).
